In patent US12551564B2, “IRAK degraders and uses thereof” (Kymera Therapeutics, Inc., priority 2019, dated 2026) one finds IC50 and DC50 data, which are given here for eleven compounds.

Like-named read-outs stand apart in the source and are kept apart here. Where only a bound is given, the exact number is not on record here.

Test [1] has as its system OCI-LY10. As to the kind of experiment: CTG Cell Viability Assay - OCI-LY10 (CellTiter-Glo). In kind it is cell-based. The note with it: Homo sapiens, 96 h; OCI-LY10 cells, 4 days incubation; read-out: CTG Cell Viability Assay-OCI-LY100: Average external-IC50. The protocol:
Cell viability assay with OCI-LY10 and TMD8
Compound-mediated viability effect on OCI-LY10 or TMD8 were quantitatively determined using the CellTiter-Glo® Luminescent Cell Viability Assay kit from Promega (Catalog number G7570) following manufacturer's recommended procedures. Briefly, OCI-LY10 or TMD8 cells is seeded into 384 well plates (Grenier Bio-One, Catalog number 781080) with a density of 10,000 cells per well. Compounds were then added to the assay plate with final top concentration of 10 μM and 1:3 dilution series with total of 9 doses. The final DMSO concentration was normalized to 0.2%. The assay plates were incubated at 37° C. for 4 days under 5% CO2. Then the assay plate was equilibrated at room temperature for 10 minutes. To determine cell viability, 30 μL CellTiter Glo reagent was added to each well and the assay plate was centrifuged at 1000 rpm for 30 second, incubated at room temperature for 10 min, and analyzed by detecting the luminescence using a multimode plate reader (EnVision 2105, PerkinElmer). The data was then analyzed by software Prism 7.0 from GraphPad and the dose response curves were fit using a three-parameter logistic equation to calculate IC50.
(In general: Cellular ATP, detected with luciferase, serves as a proxy for viable cell number.)

Test [2] concerns the target T1, IRAK4 (Homo sapiens, UniProt Q9NWZ3).
T1 construct: endogenous in cells; host or cells: OCI-LY10
T1 sequence (Q9NWZ3 1-460): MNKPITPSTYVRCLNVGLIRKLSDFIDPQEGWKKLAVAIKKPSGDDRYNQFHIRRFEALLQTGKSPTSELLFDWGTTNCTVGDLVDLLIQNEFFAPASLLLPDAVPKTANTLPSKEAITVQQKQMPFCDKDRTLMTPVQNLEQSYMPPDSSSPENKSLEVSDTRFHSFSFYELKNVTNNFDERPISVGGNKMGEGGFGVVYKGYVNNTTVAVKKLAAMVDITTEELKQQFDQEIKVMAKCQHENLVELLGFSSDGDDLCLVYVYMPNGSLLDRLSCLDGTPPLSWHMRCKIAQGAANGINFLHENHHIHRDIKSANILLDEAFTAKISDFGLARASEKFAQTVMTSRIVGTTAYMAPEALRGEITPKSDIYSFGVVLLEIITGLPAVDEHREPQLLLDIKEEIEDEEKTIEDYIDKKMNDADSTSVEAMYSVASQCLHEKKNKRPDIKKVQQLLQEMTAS
As to the kind of experiment: IRAK4 degradation in OCI-LY10 (MSD). In kind it is cell-based. The note with it: OCI-LY10 cells. The procedure: IRAK4 degradation in OCI-LY10 (MSD)
Degradation of IRAK4 in OCI-LY10 was quantitatively measured using Meso Scale Discovery technology. OCI-LY10 cells were seeded in 96-well plates (Corning 3799) with a density of 300,000 cells per well in 100 μL fresh media. Compounds were then added to the assay plates with a final top concentration of 1 to 10 μM in a 1:3 dilution series with total of 8 doses. The assay plates were then incubated for 4 to 24 hours at 37° C. under 5% CO2. The assay plates were then centrifuged for 5 minutes and the cell pellets were treated with 100 μL/well RIPA lysis buffer (Boston BioProducts BP-115D) with proteinase inhibitors. To prepare MSD assay plates (Meso Scale Discovery Catalog number L15XA-3), the plates were coated with 2 μg/mL capture antibody (mouse Anti-IRAK4 antibody [2H9], ab119942) in PBS, at 40 μL/well. The plates were then incubated overnight at 4° C., washed 3 times with 150 μL/well TBST buffer (Cell Signaling Technology, Catalog number 9997S) and blocked with 150 μL well blocking buffer (Meso Scale Discovery Catalog number R93BA-4). Cell lysates were then added to MSD assay plates and the plates were incubated at room temperature for 1 hour. The plates were then washed 3 times with 150 μL/well TBST buffer and 25 μL/well primary detection antibody (rabbit Anti-IRAK4 antibody [Y279], from Abcam. Catalog number ab32511, 1 μg/mL). The assay plates were then incubated at room temperature for 1 hour, washed 3 times with 150 TBST buffer and 25A/well secondary detection antibody, SULFO-TAG anti-rabbit antibody were added (anti rabbit antibody from Meso Scale Discovery, Catalog number R32AB-1, 1 μg/mL). The assay plates were then incubated at room temperature for 1 hour, washed 3 times with 150 TBST buffer, and 150 MSD reading buffer (Meso Scale Discovery catalog number R92TC-2) was added. The plates were then analyzed by a MSD reader (Meso Scale Discovery, Model Quick Plex SQ 120). The data was then analyzed by software Prism 7.0 from GraphPad and the dose-depended IRAK4 degradation were fit using a three-parameter logistic equation to calculate DC50.

The mark [3] stands for this setting: 4 hrs incubation, read-out: IRAK4 MSD degradation in OCI-LY10 at 4 hrs: Average external-Abs DC50.
[4] abbreviates: 24 hrs incubation, read-out: IRAK4 MSD degradation in OCI-LY10 at 24 hrs: Average external-Abs DC50.

The IC50 is the point on the concentration scale where inhibition reaches its midpoint. In general, DC50 refers to the concentration at which degradation of the target reaches its halfway point. Regarding `CN(CCCNC(=O)COc1ccc2c(c1)CCCN2C(=O)CCl)C[C@H]1CC[C@H](n2cc(NC(=O)c3coc(-c4ccnc(NCC5CC5)c4)n3)c(C(F)F)n2)CC1` [I-1, N-(1-((1r,4r)-4-(((3-(2-((1-(2-chloroacetyl)-1,2,3,4-tetrahydroquinolin-6-yl)oxy)acetamido)propyl)(methyl)amino)methyl)cyclohexyl)-3-(difluoromethyl)-1H-pyrazol-4-yl)-2-(2-((cyclopropylmethyl)amino)pyridin-4-yl)oxazole-4-carboxamide], the IC50 in test [1] is more than 1000 nM. In addition, the DC50 in test [2] (setting [3]) and in test [2] (setting [4]) was more than 1000 nM throughout.

As for `CN(CCCCCNC(=O)COc1ccc2c(c1)CCCN2C(=O)CCl)C[C@H]1CC[C@H](n2cc(NC(=O)c3coc(-c4ccnc(NCC5CC5)c4)n3)c(C(F)F)n2)CC1` [I-2], the 50% inhibitory concentration (IC50) in test [1] was more than 1000 nM. In addition, the DC50 in test [2] (setting [3]) and in test [2] (setting [4]) was more than 1000 nM throughout.

On to `CN(CCCCCCCNC(=O)COc1ccc2c(c1)CCCN2C(=O)CCl)C[C@H]1CC[C@H](n2cc(NC(=O)c3coc(-c4ccnc(NCC5CC5)c4)n3)c(C(F)F)n2)CC1` [I-3], for which, in test [1], the IC50 was more than 1000 nM. Besides, the half-maximal degradation concentration (DC50) in test [2] (setting [3]) and in test [2] (setting [4]) was more than 1000 nM each time.

Consider `CN(CCCCCCCCCNC(=O)COc1ccc2c(c1)CCCN2C(=O)CCl)C[C@H]1CC[C@H](n2cc(NC(=O)c3coc(-c4ccnc(NCC5CC5)c4)n3)c(C(F)F)n2)CC1` [I-4], for which the IC50 in test [1] is more than 1000 nM. The DC50 in test [2] (setting [4]) is more than 1000 nM.

For `CN(CCCCOc1ccc(Oc2ccc(N(Cc3ccccc3)C(=O)CCl)cc2)cc1)C[C@H]1CC[C@H](n2cc(NC(=O)c3coc(-c4ccnc(NCC5CC5)c4)n3)c(C(F)F)n2)CC1` [I-5], in test [1], the half-maximal inhibitory concentration (IC50) is more than 1000 nM. Also, the DC50 in test [2] (setting [3]) and in test [2] (setting [4]) was more than 1000 nM in each case.

For the compound `CN(CCCCCCOc1ccc(Oc2ccc(N(Cc3ccccc3)C(=O)CCl)cc2)cc1)C[C@H]1CC[C@H](n2cc(NC(=O)c3coc(-c4ccnc(NCC5CC5)c4)n3)c(C(F)F)n2)CC1` [I-6], the IC50 in test [1] fell in the range of 500 to 1000 nM. For the same compound, the DC50 in test [2] (setting [3]) and in test [2] (setting [4]) was more than 1000 nM each time.

Take `CN(CCCCCCCCOc1ccc(Oc2ccc(N(Cc3ccccc3)C(=O)CCl)cc2)cc1)C[C@H]1CC[C@H](n2cc(NC(=O)c3coc(-c4ccnc(NCC5CC5)c4)n3)c(C(F)F)n2)CC1` [I-7]: the IC50 in test [1] is 500 to 1000 nM. Moreover, the DC50 is more than 1000 nM in test [2] (setting [3]) and 100 to 1000 nM in test [2] (setting [4]).

As for `CN(CCCCCCCCCCOc1ccc(Oc2ccc(N(Cc3ccccc3)C(=O)CCl)cc2)cc1)C[C@H]1CC[C@H](n2cc(NC(=O)c3coc(-c4ccnc(NCC5CC5)c4)n3)c(C(F)F)n2)CC1` [I-8, N-(1-((1r,4r)-4-(((10-(4-(4-(N-benzyl-2-chloroacetamido)phenoxy)phenoxy)decyl)(methyl)amino)methyl)cyclohexyl)-3-(difluoromethyl)-1H-pyrazol-4-yl)-2-(2-((cyclopropylmethyl)amino)pyridin-4-yl)oxazole-4-carboxamide], the IC50 in test [1] was 500 to 1000 nM. For the same compound, the DC50 is more than 1000 nM in test [2] (setting [3]) and 100 to 1000 nM in test [2] (setting [4]).

For the compound `COCC(=O)N1CCCc2cc(OCC(=O)NCCCCCN(C)C[C@H]3CC[C@H](n4cc(NC(=O)c5coc(-c6ccnc(NCC7CC7)c6)n5)c(C(F)F)n4)CC3)ccc21` [I-9, 2-[2-(cyclopropylmethylamino)-4-pyridyl]-N-[3-(difluoromethyl)-1-[4-[[5-[[2-[[1-(2-methoxyacetyl)-3,4-dihydro-2H-quinolin-6-yl]oxy]acetyl]amino]pentyl-methyl-amino]methyl]cyclohexyl]pyrazol-4-yl]oxazole-4-carboxamide], the half-inhibitory concentration (IC50) in test [1] is more than 1000 nM. The DC50 in test [2] (setting [3]) and in test [2] (setting [4]) was more than 1000 nM throughout.

On to `COCC(=O)N(Cc1ccccc1)c1ccc(Oc2ccc(OCCCCN(C)C[C@H]3CC[C@H](n4cc(NC(=O)c5coc(-c6ccnc(NCC7CC7)c6)n5)c(C(F)F)n4)CC3)cc2)cc1` [I-11], for which, in test [1], the 50% inhibitory concentration (IC50) lay in the range of 500 to 1000 nM. Also, the DC50 in test [2] (setting [4]) is more than 1000 nM.

Take `CN(CCCCOc1ccc(Oc2ccc(N(Cc3ccccc3)C(=O)CCl)cc2)cc1)C[C@H]1CC[C@H](n2cc(N(C)C(=O)c3coc(-c4ccnc(NCC5CC5)c4)n3)c(C(F)F)n2)CC1` [I-12]: in test [1], the IC50 lay in the range of 500 to 1000 nM. Further, the 50% degradation concentration (DC50) in test [2] (setting [4]) is more than 1000 nM.
